Experimental data reported in US9023821B2, “Use of MicroRNA for treating diseases associated with a dysfunction of the cilia in multiciliated epithelial cells” (Centre National de la Recherche Scientifique, priority 2009, dated 2015).

Legend:
[1] = test system: basal cells and pyramidal cells of the airway epithelium; assay: miRNA expression in sorted basal cells versus pyramidal cells (ciliated + secretory), HTS and Agilent chips; design: species or system human
Procedure, shortened: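 Epithelium dissociated from nasal polyps is held 30 min in PBS-BSA-EDTA, then labelled 20 min at 4° C for CD151 and tissue factor. After DAPI staining, live single cells are sorted into marker-double-positive and double-negative fractions, and sort purity and identity are verified. Total RNA then undergoes miRNA profiling on arrays or by sequencing.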

[2] = test system: human airway epithelial cells (HAECs); assay: High-throughput sequencing (HTS) of miRNAs at four stages of differentiation of HAECs
Procedure, shortened: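 Small-RNA libraries from differentiating HAECs (ALI-D0 to ALI-WD) were built by ligation-based SOLiD chemistry, size-selected and sequenced. Strand counts were normalized per million reads, converted to percentage abundance, and filtered on adjusted P-value below 0.05.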

[3] = test system: human airway epithelial cells (HAECs); assay: Agilent miRNA chips, miRNA expression at four stages of differentiation of HAECs
Procedure, shortened: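 RNA from the same patients' HAECs at four differentiation stages was labelled and hybridized with the Agilent miRNA labeling and hybridization kit. Chips were Human miRNA Microarray v2, with 866 human and 89 viral miRNAs (miRBase v12.0). Profiles were compared with high-throughput sequencing data.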

“hsa-miR-141: human miRNA, SEQ ID No. 6 (UAACACUGUCUGGUAAAGAUGG; expressed or natural sequence; listed as Homo sapiens)” was tested, and the “Modulation of expression of the miRNAs in pyramidal cells (323(−)) relative to basal cells 323(+)” value ([1]; HTS and Agilent chips) was −2.88, the “Intensity of the level of expression in log2 in basal cells (323(+))” value ([1]; basal cells) was 11.12 log2 and the “Intensity of the level of expression in log2 in pyramidal cells (323(−))” value ([1]; pyramidal cells (ciliated + secretory)) was 8.24 log2. The “Modulation (ratio of the level of intensity of expression in log2 in two stages of differentiation) measured by high-throughput sequencing, D7 − D0” value ([2]; D7 − D0, Table VI) was 1.17 log2, the “Modulation (ratio of the level of intensity of expression in log2 in two stages of differentiation) measured by high-throughput sequencing, FC − D7” value ([2]; FC − D7, Table VI) was 0.37 log2 and the “Modulation (ratio of the level of intensity of expression in log2 in two stages of differentiation) measured by high-throughput sequencing, WD − D0” value ([2]; WD − D0, Table VI) was 1.70 log2. The “Modulation (ratio of the level of intensity of expression in log2 in two stages of differentiation) measured by high-throughput sequencing, WD − FC” value ([2]; WD − FC, Table VI) was 0.17 log2, the “Level of intensity of expression in log2 At the differentiated stage (WD) measured in HTS” value ([2]; healthy human airway epithelial tissue, stage WD) was 9.75 log2 and the “Level of intensity of expression in log2 measured by high-throughput sequencing, D0” value ([2]; stage D0, Table VI) was 8.05 log2. The “Level of intensity of expression in log2 measured by high-throughput sequencing, D7” value ([2]; stage D7, Table VI) was 9.22 log2, the “Level of intensity of expression in log2 measured by high-throughput sequencing, FC” value ([2]; stage FC, Table VI) was 9.58 log2 and the “Level of intensity of expression in log2 measured by high-throughput sequencing, WD” value ([2]; stage WD, Table VI) was 9.75 log2. For the same substance, the “Modulation (ratio of the level of intensity of expression in log2 in two stages of differentiation) measured with the Agilent chips, D7 − D0” value ([3]; D7 − D0, Table VI) was 2.16 log2, the “Modulation (ratio of the level of intensity of expression in log2 at two stages of differentiation), FC − D7” value ([3]; FC − D7, Agilent miRNA chips, Table V) was −0.28 log2 and the “Modulation (ratio of the level of intensity of expression in log2 in two stages of differentiation) measured with the Agilent chips, FC − D7” value ([3]; FC − D7, Table VI) was −0.28 log2. For the same substance, the “Modulation (ratio of the level of intensity of expression in log2 in two stages of differentiation) measured with the Agilent chips, WD − D0” value ([3]; WD − D0, Table VI) was 1.88 log2, the “Modulation (ratio of the level of intensity of expression in log2 at two stages of differentiation), WD − FC” value ([3]; WD − FC, Agilent miRNA chips, Table V) was 0.00 log2 and the “Modulation (ratio of the level of intensity of expression in log2 in two stages of differentiation) measured with the Agilent chips, WD − FC” value ([3]; WD − FC, Table VI) was 0.00 log2. For the same substance, the “Level of intensity of expression in log2 measured with the Agilent chips, D0” value ([3]; stage D0, Table VI) was 11.15 log2, the “Level of intensity of expression in log2 measured with the Agilent chips, D7” value ([3]; stage D7, Table VI) was 13.31 log2 and the “Level of intensity of expression in log2 measured with the Agilent chips, FC” value ([3]; stage FC, Table VI) was 13.03 log2. The “Level of intensity of expression in log2 measured with the Agilent chips, WD” value ([3]; stage WD, Table VI) was 13.03 log2.
